Data taken from publication PMC10987111, “Rational Identification of Novel Antibody‐Drug Conjugate with High Bystander Killing Effect against Heterogeneous Tumors” (Advanced Science, 2024).
Like-named read-outs stand apart in the source and are kept apart here.

Tests used:
SKBR-3 = test: Cell viability assay (CCK-8), SKBR-3; type: cell-based, human
Procedure: (§1) Cells were seeded in a 96‐well plate at 1000–4000 cells per well for different cell lines. After overnight incubation, serially diluted samples (100 µL) were added to each well, and the plate was incubated at 37°C for 72 h (payloads) or 108 h (ADCs). After the old medium was replaced with 100 µL fresh medium, 10 µL of the Cell Counting Kit‐8 (CCK‐8) was added to each well, and the plate was incubated at 37°C for 2 h. After gently agitating the plate, the absorbance at 450 nm was recorded using a BioTek Synergy microplate reader. EC50 values were calculated using GraphPad Prism 9.3 software. All assays were performed in triplicate.

MDA-MB-231 = test: Cell viability assay (CCK-8), MDA-MB-231; type: cell-based, human; settings: read-out: IC50 MDA-MB-231
Procedure: as §1

[1] = Parallel artificial membrane permeability assay (PAMPA); type: in vitro ADME; settings: for Papp at 4 h, 10 µM: PAMPA
Procedure: PAMPA was performed by WuXi AppTec Co., Ltd. (Wuxi, China). In brief, 150 µL of 10.0 µM donor solutions (5% DMSO) were added to each well of the donor plate, whose PVDF membrane was precoated with 5 µL of 1% lecithin/dodecane mixture. Then, 300 µL of PBS was added to each well of the PTFE acceptor plate. After incubation for 4 h at room temperature with shaking at 300 rpm, the plate was removed from the incubator, and the solution was transferred from each acceptor and donor well and mixed with acetonitrile (containing internal standard) as samples. Acceptor samples and donor samples were all analyzed by LC‐MS/MS to determine permeability rates (Pe). All assays were performed in duplicates.

MDA-MB-361 = test: Cell viability assay (CCK-8), MDA-MB-361; type: cell-based; settings: Homo sapiens, MDA-MB-361, 72 h, read-out: IC50 MDA-MB-361
Procedure: as §1

MDA-MB-453 = test: Cell viability assay (CCK-8), MDA-MB-453; type: cell-based; settings: Homo sapiens, MDA-MB-453, 72 h, read-out: IC50 MDA-MB-453
Procedure: as §1, with “After overnight incubation, serially diluted samples (100 µL) were added to each well, and the plate was incubated at 37°C for 72 h (payloads) or 108 h (ADCs).” left out

JIMT-1 = test: Cell viability assay (CCK-8), JIMT-1; type: cell-based; settings: Homo sapiens, JIMT-1, 72 h, read-out: IC50 JIMT-1
Procedure: as §1

NCI-N87 = test: Cell viability assay (CCK-8), NCI-N87; type: cell-based; settings: Homo sapiens, NCI-N87, 72 h, read-out: IC50 NCI-N87
Procedure: as §1, with “After overnight incubation, serially diluted samples (100 µL) were added to each well, and the plate was incubated at 37°C for 72 h (payloads) or 108 h (ADCs).” left out

Topo I = target: T1, Topo I (Homo sapiens, UniProt P11387); test: Topo I-mediated DNA cleavage assay; type: biochemical; settings: 10 µM
T1 sequence (P11387 1-765): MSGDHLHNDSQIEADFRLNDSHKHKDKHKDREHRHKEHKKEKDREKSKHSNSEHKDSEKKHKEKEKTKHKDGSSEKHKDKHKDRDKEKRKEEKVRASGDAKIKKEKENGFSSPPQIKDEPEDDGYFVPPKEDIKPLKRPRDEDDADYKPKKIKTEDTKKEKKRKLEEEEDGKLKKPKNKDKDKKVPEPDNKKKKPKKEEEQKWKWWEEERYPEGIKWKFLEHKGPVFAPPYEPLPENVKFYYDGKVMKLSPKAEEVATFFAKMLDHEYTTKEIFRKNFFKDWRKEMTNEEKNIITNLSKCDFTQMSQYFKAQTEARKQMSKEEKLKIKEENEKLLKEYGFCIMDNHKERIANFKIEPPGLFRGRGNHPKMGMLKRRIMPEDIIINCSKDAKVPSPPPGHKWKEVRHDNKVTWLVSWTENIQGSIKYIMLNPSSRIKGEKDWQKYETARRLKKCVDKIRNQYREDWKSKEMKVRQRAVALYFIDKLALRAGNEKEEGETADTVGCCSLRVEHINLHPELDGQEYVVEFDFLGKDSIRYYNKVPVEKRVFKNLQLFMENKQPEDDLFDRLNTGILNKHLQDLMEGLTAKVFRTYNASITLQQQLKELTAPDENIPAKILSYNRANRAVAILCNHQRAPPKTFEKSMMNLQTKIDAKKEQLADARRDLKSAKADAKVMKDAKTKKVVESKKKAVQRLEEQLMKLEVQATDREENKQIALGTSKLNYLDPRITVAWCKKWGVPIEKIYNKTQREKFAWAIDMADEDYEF
Procedure: DNA cleavage assay was performed by Huawei Pharmaceutical Co., Ltd. (Jinan, China) with reference to previous literature about camptothecin derivatives.^[ [63] ^]

[2] = tested on: NCI-N87 cells and MDA-MB-231/teLuc cells (2: 5 ratio) xenograft; test: Xenograft mouse model of HER2-heterogeneous cancer (co-inoculation) with teLuc imaging; type: in vivo, BALB/c nude mice; settings: single intravenous dose of 2 or 5 mg kg^-1
Procedure: On day 7, the tumors reached an average volume of ≈180 mm^3, mice were randomized to each group, and each ADC was given to the mice at a single dose of 5 or 2 mg kg^−1 through injection via the tail vein, with a volume of 10 mL kg^−1. The size of the tumor and body weight were monitored three times a week. The tumor volume was estimated on the mathematical formula, which is 1/2 × length × width^2.
Teal luciferase activity of each mouse in the HER2‐heterogeneous xenograft model was determined by an in vivo Imaging System (IVIS) Spectrum CT (PerkinElmer, USA) once a week (Day 7, 14, 21, 35) 10 min after intraperitoneal injection of pre‐dissolved DTZ (MeisenCTCC). The amount of luminescence was analyzed using analysis software (Living Image Software version 4.3.1; PerkinElmer) as average radiance (p per s per cm^2 per sr).

[3] = tested on: NCI-N87 and MDA-MB-231/GFP co-culture system; test: In vitro co-culture model for bystander-killing evaluation; type: cell-based, human; settings: GFP fluorescence intensity and fluorescence microscopy
Procedure: After overnight incubation, a single concentration or a serially diluted solution of each ADC was added. Cell viability was evaluated after 120 h using the cell counting kit‐8 assay. The mixed cell viability was determined by CCK‐8 assay. […] In the supernatant proliferation inhibition experiment, gradient concentrations of ADC were incubated with NCI‐N87 (4000 cells per well) for 48 h.

[4] = tested on: breast tumors with low HER2 expression; design: method as in ref 25, 26 = [25]; 25 S. Modi , W. Jacot , T. Yamashita , J. Sohn , M. Vidal , E. Tokunaga , J. Tsurutani , N. T. Ueno , A. Prat , Y. S. Chae , K. S. Lee , N. Niikura , Y. H. Park , B. Xu , X. Wang , M. Gil‐Gil , W. Li || [26]; 26 Cancer Discov. 2022 , 12 , 1828 .; settings: breast tumors with low HER2 expression ref 25, 26; cited from earlier work
[5] = tested on: HER2-low-expressing urothelial carcinoma; design: method as in ref 29 = [29]; 29 H. Xu , X. Sheng , L. Zhou , X. Yan , S. Li , Z. Chi , C. Cui , L. Si , B. Tang , L. Mao , B. Lian , X. Wang , X. Bai , J. Li , J. Guo , JCO 2022 , 40 , 4519 .; settings: patients with HER2(IHC 1+), 5/13, phase II ref 29; cited from earlier work
[6] = payloads, 3 days (72 h), HER2++, read-out: IC50 SKBR-3
[7] = 10.0 µM donor solution, 4 h, room temperature
[8] = 10.0 µM donor solution, 4 h, room temperature, read-out: Peff (PAMPA permeability)
[9] = Homo sapiens, SK-BR-3, 72 h, read-out: IC50 SKBR-3
[10] = Homo sapiens, SK-BR-3, read-out: pIC50 (converted)
[11] = Homo sapiens, MDA-MB-231, payloads, 3 days (72 h), HER2-
[12] = Homo sapiens, SK-BR-3, Normalized from IC50 (μM) against SKBR-3, read-out: pIC50 (converted)
[13] = Homo sapiens, SK-BR-3, payloads, 3 days (72 h), HER2++, read-out: IC50 SKBR-3

## CC[C@@]1(O)C(=O)OCc2c1cc1n(c2=O)Cc2c-1nc1cc(F)c(C)c3c1c2[C@@H](NC(=O)C(O)c1ccccc1)CC3 (single isomer, unassigned) [Ed3]
SKBR-3; [6]
  IC50: 0.109 ± 0.0122 µM

## CC[C@@]1(O)C(=O)OCc2c1cc1n(c2=O)Cc2c-1nc1cc(F)c(C)c3c1c2[C@@H](NC(=O)C(O)c1ccccc1)CC3 (single isomer, unassigned) [Ed4]
MDA-MB-231; payloads, 3 days (72 h), HER2-
  IC50: 4.41 nM
SKBR-3; [6]
  IC50: 0.0495 ± 0.00832 µM
[1]; [7]
  Peff (PAMPA permeability): 3.43 10^-6 cm/s

## NC(=O)N1c2ccccc2C=Cc2ccccc21 [Carbamazepine, reference compound]
[1]; [8]
  Papp at 4 h, 10 µM: > 10 ×10⁻⁶ cm/s

## CCC1(O)C(=O)OCc2c1cc1n(c2=O)Cc2c-1nc1cc(F)c(C)c3c1c2C(NC(=O)CO)CC3 (stereo not shown) [DXd, reference compound]
MDA-MB-361
  IC50: 16.4 nM
MDA-MB-453
  IC50: 262 nM
MDA-MB-231; Homo sapiens, MDA-MB-231, 72 h
  IC50: 25.8 nM
SKBR-3; [9]
  IC50: 0.0739 ± 0.0171 µM
SKBR-3; [10]
  IC50: 0.074 µM
[1]; [8]
  Papp at 4 h, 10 µM: 3.12 ×10⁻⁶ cm/s
JIMT-1
  IC50: 577 nM
NCI-N87
  IC50: 9.03 nM

## CC[C@@]1(O)C(=O)OCc2c1cc1n(c2=O)Cc2c-1nc1cc(F)c(C)c3c1c2[C@@H](NC(=O)[C@@H](O)C(C)C)CC3 [Ed1]
SKBR-3; [9]
  IC50: 0.129 µM
SKBR-3; [10]
  IC50: 0.129 µM

## CC[C@@]1(O)C(=O)OCc2c1cc1n(c2=O)Cc2c-1nc1cc(F)c(C)c3c1c2[C@@H](NC(=O)[C@H](O)C(C)C)CC3 [Ed2]
MDA-MB-231; payloads, 3 days (72 h), HER2-
  IC50: 8.32 nM
SKBR-3; [6]
  IC50: 0.0421 µM
[1]; [7]
  Peff (PAMPA permeability): 2.67 10^-6 cm/s

## CC[C@@]1(O)C(=O)OCc2c1cc1n(c2=O)Cc2c-1nc1cc(F)c(C)c3c1c2[C@@H](NC(=O)C[C@@H](O)c1ccccc1)CC3 [Ed5]
SKBR-3; [6]
  IC50: 0.177 ± 0.0158 µM

## CC[C@@]1(O)C(=O)OCc2c1cc1n(c2=O)Cc2c-1nc1cc(F)c(C)c3c1c2[C@@H](NC(=O)[C@H](O)C(F)(F)F)CC3 [Ed6]
MDA-MB-231; [11]
  IC50: 9.46 nM
SKBR-3; [12]
  IC50: 0.0604 µM
SKBR-3; [13]
  IC50: 0.0604 µM

## CC[C@@]1(O)C(=O)OCc2c1cc1n(c2=O)Cc2c-1nc1cc(F)c(C)c3c1c2[C@@H](NC(=O)C(O)C(F)(F)F)CC3 (stereo partly shown) [Ed7]
MDA-MB-231; payloads, 3 days (72 h), HER2-
  IC50: 6.11 nM
SKBR-3; [6]
  IC50: 0.0415 µM
[1]; [7]
  Peff (PAMPA permeability): 4.96 10^-6 cm/s

## CC[C@@]1(O)C(=O)OCc2c1cc1n(c2=O)Cc2c-1nc1cc(F)c(C)c3c1c2[C@@H](NC(=O)C(C)(C)O)CC3 [Ed8]
MDA-MB-231; [11]
  IC50: 4.21 nM
SKBR-3; [12]
  IC50: 0.0144 µM
SKBR-3; [13]
  IC50: 0.0144 ± 0.00379 µM
[1]
  Papp at 4 h, 10 µM: 5.74 ×10⁻⁶ cm/s

## CC[C@@]1(O)C(=O)OCc2c1cc1n(c2=O)Cc2c-1nc1cc(F)c(C)c3c1c2[C@@H](NC(=O)C1(O)CCC1)CC3 [Ed9]
MDA-MB-361; payloads, 3 days, HER2+
  IC50: 1.69 nM
MDA-MB-453; payloads, 3 days, HER2+
  IC50: 120 nM
MDA-MB-231; [11]
  IC50: 2.69 nM
Topo I
  Topo I inhibitory activity: significantly lower than that of DXd
SKBR-3; [12]
  IC50: 0.0132 µM
SKBR-3; [13]
  IC50: 0.0131 ± 0.00424 µM
[1]
  Papp at 4 h, 10 µM: 5.66 ×10⁻⁶ cm/s
JIMT-1; payloads, 3 days, HER2+
  IC50: 193 nM
NCI-N87; payloads, 3 days, HER2++
  IC50: 1.17 nM

## CC[C@@]1(O)C(=O)OCc2c1cc1n(c2=O)Cc2c-1nc1cc(F)c(C)c3c1c2[C@@H](NC(=O)C1(O)CCCC1)CC3 [Ed10]
MDA-MB-231; Homo sapiens, MDA-MB-231, 72 h
  IC50: 5.17 nM
Topo I
  Topo I inhibitory activity: lose their inhibitory activity
SKBR-3; [9]
  IC50: 0.0178 ± 0.00369 µM
SKBR-3; [10]
  IC50: 0.0178 µM

## CC[C@@]1(O)C(=O)OCc2c1cc1n(c2=O)Cc2c-1nc1cc(F)c(C)c3c1c2[C@@H](NC(=O)C1(O)CCCCC1)CC3 [Ed11]
MDA-MB-231; payloads, 3 days (72 h), HER2-
  IC50: 5.43 nM
SKBR-3; [6]
  IC50: 0.0177 ± 0.00534 µM
[1]; [7]
  Peff (PAMPA permeability): 6.12 10^-6 cm/s

## T-DM1
[2]
  tumor volume change: less effective
[3]
  killing of both NCI-N87 and MDA-MB-231/GFP cells in co-culture: did not
[4]
  effect: limited effect

B1: Disitamab Vedotin (conjugate, chains of the INN, looked up)
VH: EVQLVQSGAEVKKPGATVKISCKVSGYTFTDYYIHWVQQAPGKGLEWMGRVNPDHGDSYYNQKFKDKATITADKSTDTAYMELSSLRSEDTAVYFCARNYLFDHWGQGTLVTVSS
VL: DIQMTQSPSSVSASVGDRVTITCKASQDVGTAVAWYQQKPGKAPKLLIYWASIRHTGVPSRFSGSGSGTDFTLTISSLQPEDFATYYCHQFATYTFGGGTKVEIK
modifications: vedotin (MMAE) payload
[5]
  ORR: 38%
